From PubChem BioAssay AID1949 (Southern Research Institute, 2009)
Converted amounts (≈) assume the structure as drawn. Results filed as inconclusive are left out. The source made the active and inactive calls. The rule behind the calls is not given here.

test system: M. tuberculosis H37Rv growth inhibition; test: Mycobacterium tuberculosis H37Rv growth inhibition, cell based, confirmatory dose response (AID 1949);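 note: bacteria grown 7 days with compound before Alamar blue readout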

Compared with `O=C(COc1ccc(Cl)cc1Cl)Oc1cccc2cccnc12`, `CCCOc1ccccc1NC(=O)Nc1ccc(Cl)c(Cl)c1` is 3.4-fold lower in IC50: 5.88 mg/L (≈ 16.9 µM) for the first, 1.71 mg/L (≈ 5.04 µM) for the second.

Compared with `O=C(O)c1ccc(NC(CC(=O)c2ccccc2)c2ccc(Br)cc2)cc1` (stereo unspecified), `CCOC(=O)c1ccc(NC(=S)NC(=O)CCc2ccccc2)cc1` is 4.3-fold lower in IC50: 7.58 mg/L (≈ 17.9 µM) for the first, 1.76 mg/L (≈ 4.94 µM) for the second.

Going from `COC(=O)C1=C(C)N(c2cc(Cl)cc(Cl)c2)C(=O)C1` to `O=C(Nc1ccc(Cl)cc1)Nc1ccc(F)c(F)c1`, the IC50 falls from 6.04 mg/L (≈ 20.1 µM) to 0.94 mg/L (≈ 3.33 µM) (6.4-fold).

First: CCC(C(=O)Nc1ccc(CC(=O)OC)cc1)c1ccccc1 (stereo unspecified)
Second: COc1ccc(NC(=S)NC(=O)CCc2ccccc2)cc1
The IC50 of the first is 2.8-fold lower: 0.69 mg/L (≈ 2.22 µM) for the first, 1.92 mg/L (≈ 6.11 µM) for the second.

Compared with `OC(CNC1CCCC1)Cn1c2ccccc2c2ccccc21` (stereo unspecified), `O=C(COc1ccc(C(=O)NCc2ccccc2)cc1)OC1CCCCC1` is 12-fold lower in IC50: 8.93 mg/L (≈ 29 µM) for the first, 0.73 mg/L (≈ 1.99 µM) for the second.

Compared with `Cc1ccc(Cn2cnc3cc(C)c(C)cc32)cc1`, `Cc1cccc(OCCCn2cnc3cc(C)c(C)cc32)c1` is 4.5-fold lower in IC50: 8.24 mg/L (≈ 32.9 µM) for the first, 1.84 mg/L (≈ 6.25 µM) for the second.

First: CC(=O)NC(=S)NNC(=O)c1ccc(C(C)(C)C)cc1
Second: CC(C)(C)c1ccc(OCCCNCc2ccccc2)cc1
The IC50 of the first is 17-fold lower: 0.29 mg/L (≈ 0.988 µM) for the first, 4.84 mg/L (≈ 16.3 µM) for the second.

Compared with `O=[N+]([O-])/C=C/c1ccc(-c2ccccc2C(F)(F)F)o1`, `O=[N+]([O-])/C=C/c1cccn1-c1ccc(F)cc1` is 1.6-fold higher in IC50: 4.61 mg/L (≈ 16.3 µM) for the first, 7.57 mg/L (≈ 32.6 µM) for the second.

Compared with `Brc1c(OCCCn2ccnc2)ccc2ccccc12`, `c1ccc(CCNc2nc(-c3ccccn3)cs2)cc1` is 3.9-fold lower in IC50: 1.56 mg/L (≈ 4.71 µM) for the first, 0.4 mg/L (≈ 1.42 µM) for the second.

First: O=c1c2ccccc2nc(/C=C/c2ccc([N+](=O)[O-])o2)n1CCCO
Second: O=C(Nc1cccc2ncccc12)c1ccc([N+](=O)[O-])o1
The IC50 of the first is lower: under 0.1 mg/L for the first, 4.28 mg/L (≈ 15.1 µM) for the second.

Compared with `CCCc1cc2c(=O)c(-c3ccc4c(c3)OCCCO4)coc2cc1OCC(=O)OCC`, `CCOC(=O)COc1ccc(S(=O)(=O)Nc2cccc(SC)c2)cc1` is 12-fold higher in IC50: 0.3 mg/L (≈ 0.684 µM) for the first, 3.69 mg/L (≈ 9.67 µM) for the second.

First: O=C(Nc1cccc(Br)c1)c1ccc(-c2ccc(Cl)cc2)o1
Second: COc1cc(NC(=O)c2ccc(Br)o2)ccc1NC(=O)c1ccccc1Cl
The IC50 of the first is 4.9-fold lower: 1.39 mg/L (≈ 3.69 µM) for the first, 6.8 mg/L (≈ 15.1 µM) for the second.

Going from `CC1CCN(c2ccc(N)cc2)CC1` to `Oc1c(CN2CCN(c3ccc(F)cc3)CC2)cc(Cl)c2cccnc12`, the IC50 falls from 5.71 mg/L (≈ 30 µM) to 1.07 mg/L (≈ 2.88 µM) (5.3-fold).

First: CCOC(=O)CSc1n[nH]c(-c2ccc(Cl)cc2)n1
Second: COc1ccc(-c2ccc(C#N)c(SCC(=O)OCc3ccccc3)n2)cc1
The IC50 of the first is 4.8-fold lower: 2.99 mg/L (≈ 10 µM) for the first, 14.3 mg/L (≈ 36.5 µM) for the second.

`COc1cccc(N2CCN(Cc3nc(N)nc(Nc4ccc(C)c(Cl)c4)n3)CC2)c1` and `Cc1ccc(C(=O)N2CCN(c3ccc(NC(=O)COc4c(C)cc(C)cc4Br)cc3)CC2)cc1` are within 1.5-fold of each other in IC50: 1.45 mg/L (≈ 3.3 µM) for the first, 1.34 mg/L (≈ 2.5 µM) for the second.

First: O=C(NC(=S)N1CCCC1)c1ccc(-c2ccccc2)cc1
Second: O=C(Nc1ccc(N2CCCC2)c(Cl)c1)c1ccccc1F
The IC50 of the first is 4-fold lower: 1.43 mg/L (≈ 4.61 µM) for the first, 5.78 mg/L (≈ 18.1 µM) for the second.

Compared with `CC(=O)c1ccc(S(=O)(=O)c2ccc(C)cc2)c([N+](=O)[O-])c1`, `Cc1ccc(-n2sc3ccccc3c2=O)cc1` is lower in IC50: 2.94 mg/L (≈ 9.21 µM) for the first, under 0.1 mg/L for the second.

Compared with `O=C(Nc1nc2c(Cl)c(Cl)ccc2s1)c1ccco1`, `Oc1ccc(Cl)cc1CNc1nc2ccccc2[nH]1` is 2.5-fold higher in IC50: 4.83 mg/L (≈ 15.4 µM) for the first, 12.1 mg/L (≈ 44.3 µM) for the second.

First: Cc1cccc(-c2nnc(SCC(=O)NCCc3ccccc3)o2)c1
Second: CCOc1ccc(NC(=O)CSc2nnc(-c3ccccc3Cl)o2)cc1
The IC50 of the first is 13-fold lower: 0.25 mg/L (≈ 0.707 µM) for the first, 3.35 mg/L (≈ 8.59 µM) for the second.

`Cc1cc(OCC(O)CNC(C)c2ccccc2)ccc1C(C)C` (stereo unspecified) and `Cc1cc2ncn(CC(O)COc3ccc(C(C)C)cc3)c2cc1C` (stereo unspecified) are within 1.5-fold of each other in IC50: 5.52 mg/L (≈ 16.9 µM) for the first, 5.42 mg/L (≈ 16 µM) for the second.

First: O=C1c2cccc3cccc(c23)C(=O)N1CCN1CCN(CC(O)COc2ccccc2Cl)CC1 (stereo unspecified)
Second: Cc1ccc2c(c1)c(-c1ccccc1)c(-c1ccccc1)n2CC(O)CN1CCN(CCO)CC1 (stereo unspecified)
The IC50 of the first is 1.6-fold higher: 2.93 mg/L (≈ 5.93 µM) for the first, 1.84 mg/L (≈ 3.92 µM) for the second.

Compared with `CCN(CC)c1ccc(NC(=S)Nc2ccc(F)c(Cl)c2)cc1`, `CCN(CC)c1ccc(NC(=S)NCCc2ccc(OC)c(OC)c2)cc1` is 4.5-fold lower in IC50: 7.64 mg/L (≈ 21.7 µM) for the first, 1.68 mg/L (≈ 4.33 µM) for the second.

First: COc1ccccc1Nc1nc(NCc2ccccc2)c2ccccc2n1
Second: Oc1ccccc1Nc1nc(NCc2ccco2)c2ccccc2n1
The IC50 of the first is 1.7-fold lower: 3.21 mg/L (≈ 9.01 µM) for the first, 5.36 mg/L (≈ 16.1 µM) for the second.

Going from `CN(C)CC1CC(C(C)(C)C)CCC1=O` (stereo unspecified) to `CCC(OC(C)=O)c1ccc(OC(C)=O)c(OC)c1` (stereo unspecified), the IC50 falls from 2.45 mg/L (≈ 11.6 µM) to 1.43 mg/L (≈ 5.37 µM) (1.7-fold).

Going from `CSc1nsc(SCC(=O)N2CCc3ccccc32)n1` to `CC1=NN(C(=S)Cc2ccccc2)C(C)(O)C1` (stereo unspecified), the IC50 falls from 12 mg/L (≈ 37 µM) to 2.79 mg/L (≈ 11.2 µM) (4.3-fold).

First: Cc1cc(C)c(OCCCCNCc2ccccc2)c(Cl)c1
Second: COc1cc(/C=C/[N+](=O)[O-])cc(Cl)c1OCc1ccccc1C#N
The IC50 of the first is 3.5-fold lower: 5.18 mg/L (≈ 16.3 µM) for the first, 17.9 mg/L (≈ 51.8 µM) for the second.

Compared with `O=C(Nc1ccc(Cl)c(C(F)(F)F)c1)C1CCN(C(=O)c2ccc(Br)cc2)CC1`, `COC(=O)COc1ccc(NC(=O)COc2ccc(C)c(C)c2)cc1` is 2.2-fold lower in IC50: 7.21 mg/L (≈ 14.7 µM) for the first, 3.35 mg/L (≈ 9.76 µM) for the second.

Compared with `Cc1ccc(Sc2ccc(C=O)o2)cc1`, `CC1=NN(c2nc3ccccc3s2)C(=O)C1Cc1cccc2ccccc12` (stereo unspecified) is 7.2-fold lower in IC50: 2.15 mg/L (≈ 9.85 µM) for the first, 0.3 mg/L (≈ 0.808 µM) for the second.

In the case of `CC(C)COCc1ccc(O)c2ncccc12`, the IC50 is reported as > 50 mg/L (inactive).
With `Cc1cc(Cl)ccc1N1CCN(CCNC(=O)Nc2ccc(F)cc2)CC1` the IC50 was > 50 mg/L (inactive).
For `COc1ccc(N2CCN(c3ncnc4sc5c(c34)CCCC5)CC2)cc1`, the IC50 was > 50 mg/L (inactive).
With `Clc1ccc2[nH]c3c(c2c1)CCc1cn[nH]c1-3` the IC50 was > 50 mg/L (inactive).
In the case of `c1ccc2nc3c(nc2c1)Nn1cnnc1S3`, the IC50 is reported as > 50 mg/L (inactive).
